We go through four compounds from PubChem BioAssay (NCI).

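48-hour exposure; five concentrations; linearly interpolated endpoints. At the TGI there is no net growth.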

The first assay deals with 786-0 renal. The experiment in a line: inhibition of tumour cell growth, NCI panel, 48 h.
`NC1=C(NC(=O)Cc2ccc(F)cc2)C(=O)c2ccccc2C1=O`: the TGI was > 100 µM.
With `COc1cc(/C=C2/C(=O)N(C(=O)OCC(C)C)C(Cc3cc(OC)c(OC)c(C)c3OC)C(=O)N2Cc2ccccc2)c(OC)c(C)c1OC` (stereo not drawn), the TGI is > 100 µM.
Same read-out and setting: the value for `NC(=O)N/N=C(\CC1OC(=O)c2ccccc21)c1ccco1` (stereo not drawn) was > 100 µM; that for `O=c1[nH]c2cc(Cl)ccc2nc1/C(=N\O)C(O)c1cccc([N+](=O)[O-])c1` (stereo not drawn) was > 100 µM.

A further assay deals with A498 renal. The experiment in a line: inhibition of tumour cell growth, NCI panel, 48 h.
`COc1cc(/C=C2/C(=O)N(C(=O)OCC(C)C)C(Cc3cc(OC)c(OC)c(C)c3OC)C(=O)N2Cc2ccccc2)c(OC)c(C)c1OC` (stereo not drawn): the TGI was > 100 µM.
Still for that read-out and setting: the same measure for `NC(=O)N/N=C(\CC1OC(=O)c2ccccc21)c1ccco1` (stereo not drawn): > 100 µM.

A further assay deals with A549 NSCLC. The experiment in a line: inhibition of tumour cell growth, NCI panel, 48 h.
With `NC1=C(NC(=O)Cc2ccc(F)cc2)C(=O)c2ccccc2C1=O`, the TGI is > 100 µM.
Same read-out and setting: the same measure for `COc1cc(/C=C2/C(=O)N(C(=O)OCC(C)C)C(Cc3cc(OC)c(OC)c(C)c3OC)C(=O)N2Cc2ccccc2)c(OC)c(C)c1OC` (stereo not drawn): > 100 µM; for `NC(=O)N/N=C(\CC1OC(=O)c2ccccc21)c1ccco1` (stereo not drawn): > 100 µM; for `O=c1[nH]c2cc(Cl)ccc2nc1/C(=N\O)C(O)c1cccc([N+](=O)[O-])c1` (stereo not drawn): > 100 µM.

A further assay deals with ACHN renal. The experiment in a line: inhibition of tumour cell growth, NCI panel, 48 h.
Regarding `NC1=C(NC(=O)Cc2ccc(F)cc2)C(=O)c2ccccc2C1=O`, the TGI is > 100 µM.
Consider `COc1cc(/C=C2/C(=O)N(C(=O)OCC(C)C)C(Cc3cc(OC)c(OC)c(C)c3OC)C(=O)N2Cc2ccccc2)c(OC)c(C)c1OC` (stereo not drawn), for which the TGI was > 100 µM.
With `NC(=O)N/N=C(\CC1OC(=O)c2ccccc21)c1ccco1` (stereo not drawn), the TGI is > 100 µM.
The same measure, in the same setting: the same measure for `O=c1[nH]c2cc(Cl)ccc2nc1/C(=N\O)C(O)c1cccc([N+](=O)[O-])c1` (stereo not drawn): > 100 µM.

The subject of another assay is CAKI-1 renal. The experiment in a line: inhibition of tumour cell growth, NCI panel, 48 h.
Regarding `NC1=C(NC(=O)Cc2ccc(F)cc2)C(=O)c2ccccc2C1=O`, the TGI was > 100 µM.
Still for that read-out and setting: the same measure for `COc1cc(/C=C2/C(=O)N(C(=O)OCC(C)C)C(Cc3cc(OC)c(OC)c(C)c3OC)C(=O)N2Cc2ccccc2)c(OC)c(C)c1OC` (stereo not drawn): > 100 µM; for `NC(=O)N/N=C(\CC1OC(=O)c2ccccc21)c1ccco1` (stereo not drawn): > 100 µM.

The test system of the next assay is CCRF-CEM leukemia. The experiment in a line: inhibition of tumour cell growth, NCI panel, 48 h.
With `NC1=C(NC(=O)Cc2ccc(F)cc2)C(=O)c2ccccc2C1=O`, the TGI was > 100 µM.
Still for that read-out and setting: the same measure for `COc1cc(/C=C2/C(=O)N(C(=O)OCC(C)C)C(Cc3cc(OC)c(OC)c(C)c3OC)C(=O)N2Cc2ccccc2)c(OC)c(C)c1OC` (stereo not drawn): > 100 µM; for `NC(=O)N/N=C(\CC1OC(=O)c2ccccc21)c1ccco1` (stereo not drawn): > 100 µM.
The same measure, in the same setting: the value for `O=c1[nH]c2cc(Cl)ccc2nc1/C(=N\O)C(O)c1cccc([N+](=O)[O-])c1` (stereo not drawn) was > 100 µM.

In a further assay the test system is COLO 205 colon. The experiment in a line: inhibition of tumour cell growth, NCI panel, 48 h.
Regarding `NC1=C(NC(=O)Cc2ccc(F)cc2)C(=O)c2ccccc2C1=O`, the TGI was > 100 µM.
On the same count and under the same terms, the value for `COc1cc(/C=C2/C(=O)N(C(=O)OCC(C)C)C(Cc3cc(OC)c(OC)c(C)c3OC)C(=O)N2Cc2ccccc2)c(OC)c(C)c1OC` (stereo not drawn) was > 100 µM; that for `NC(=O)N/N=C(\CC1OC(=O)c2ccccc21)c1ccco1` (stereo not drawn) was > 100 µM.
On to `O=c1[nH]c2cc(Cl)ccc2nc1/C(=N\O)C(O)c1cccc([N+](=O)[O-])c1` (stereo not drawn), for which the TGI is > 100 µM.

A further assay relates to DLD-1 colon. The experiment in a line: inhibition of tumour cell growth, NCI panel, 48 h.
For `NC1=C(NC(=O)Cc2ccc(F)cc2)C(=O)c2ccccc2C1=O`, the TGI was > 71.4 µM.
As to `COc1cc(/C=C2/C(=O)N(C(=O)OCC(C)C)C(Cc3cc(OC)c(OC)c(C)c3OC)C(=O)N2Cc2ccccc2)c(OC)c(C)c1OC` (stereo not drawn), the TGI was > 100 µM.
The same measure, in the same setting: the same measure for `NC(=O)N/N=C(\CC1OC(=O)c2ccccc21)c1ccco1` (stereo not drawn): > 100 µM; for `O=c1[nH]c2cc(Cl)ccc2nc1/C(=N\O)C(O)c1cccc([N+](=O)[O-])c1` (stereo not drawn): > 100 µM.

The next assay has as its system DMS 114 small cell lung. The experiment in a line: inhibition of tumour cell growth, NCI panel, 48 h.
The compound `NC1=C(NC(=O)Cc2ccc(F)cc2)C(=O)c2ccccc2C1=O` returned a TGI of 27 µM.
On the same count and under the same terms, the value for `COc1cc(/C=C2/C(=O)N(C(=O)OCC(C)C)C(Cc3cc(OC)c(OC)c(C)c3OC)C(=O)N2Cc2ccccc2)c(OC)c(C)c1OC` (stereo not drawn) was > 100 µM; that for `NC(=O)N/N=C(\CC1OC(=O)c2ccccc21)c1ccco1` (stereo not drawn) was > 100 µM.
For `O=c1[nH]c2cc(Cl)ccc2nc1/C(=N\O)C(O)c1cccc([N+](=O)[O-])c1` (stereo not drawn), the TGI was > 100 µM.

For another assay, the system named is DMS 273 small cell lung. The experiment in a line: inhibition of tumour cell growth, NCI panel, 48 h.
On to `NC1=C(NC(=O)Cc2ccc(F)cc2)C(=O)c2ccccc2C1=O`, for which the TGI was > 100 µM.
The same measure, in the same setting: the same measure for `COc1cc(/C=C2/C(=O)N(C(=O)OCC(C)C)C(Cc3cc(OC)c(OC)c(C)c3OC)C(=O)N2Cc2ccccc2)c(OC)c(C)c1OC` (stereo not drawn): > 100 µM.
Turning to `NC(=O)N/N=C(\CC1OC(=O)c2ccccc21)c1ccco1` (stereo not drawn), the TGI was > 100 µM.

The test system of another assay is EKVX NSCLC. The experiment in a line: inhibition of tumour cell growth, NCI panel, 48 h.
On to `NC1=C(NC(=O)Cc2ccc(F)cc2)C(=O)c2ccccc2C1=O`, for which the TGI is > 100 µM.
Still for that read-out and setting: the same measure for `COc1cc(/C=C2/C(=O)N(C(=O)OCC(C)C)C(Cc3cc(OC)c(OC)c(C)c3OC)C(=O)N2Cc2ccccc2)c(OC)c(C)c1OC` (stereo not drawn): > 100 µM.
Same read-out and setting: the value for `NC(=O)N/N=C(\CC1OC(=O)c2ccccc21)c1ccco1` (stereo not drawn) was > 100 µM; that for `O=c1[nH]c2cc(Cl)ccc2nc1/C(=N\O)C(O)c1cccc([N+](=O)[O-])c1` (stereo not drawn) was > 100 µM.

In another assay the test system is HCC-2998 colon. The experiment in a line: inhibition of tumour cell growth, NCI panel, 48 h.
For the compound `NC1=C(NC(=O)Cc2ccc(F)cc2)C(=O)c2ccccc2C1=O`, the TGI is > 100 µM.
As to `COc1cc(/C=C2/C(=O)N(C(=O)OCC(C)C)C(Cc3cc(OC)c(OC)c(C)c3OC)C(=O)N2Cc2ccccc2)c(OC)c(C)c1OC` (stereo not drawn), the TGI is > 100 µM.
The same measure, in the same setting: the value for `NC(=O)N/N=C(\CC1OC(=O)c2ccccc21)c1ccco1` (stereo not drawn) was > 100 µM.
Same read-out and setting: the value for `O=c1[nH]c2cc(Cl)ccc2nc1/C(=N\O)C(O)c1cccc([N+](=O)[O-])c1` (stereo not drawn) was > 100 µM.

In a further assay the test system is HCT-116 colon. The experiment in a line: inhibition of tumour cell growth, NCI panel, 48 h.
`NC1=C(NC(=O)Cc2ccc(F)cc2)C(=O)c2ccccc2C1=O`: the TGI is > 91.1 µM.
Still for that read-out and setting: the same measure for `COc1cc(/C=C2/C(=O)N(C(=O)OCC(C)C)C(Cc3cc(OC)c(OC)c(C)c3OC)C(=O)N2Cc2ccccc2)c(OC)c(C)c1OC` (stereo not drawn): > 100 µM; for `NC(=O)N/N=C(\CC1OC(=O)c2ccccc21)c1ccco1` (stereo not drawn): > 100 µM; for `O=c1[nH]c2cc(Cl)ccc2nc1/C(=N\O)C(O)c1cccc([N+](=O)[O-])c1` (stereo not drawn): > 100 µM.

The next assay relates to HCT-15 colon. The experiment in a line: inhibition of tumour cell growth, NCI panel, 48 h.
Consider `NC1=C(NC(=O)Cc2ccc(F)cc2)C(=O)c2ccccc2C1=O`, for which the TGI was > 100 µM.
Same read-out and setting: the same measure for `NC(=O)N/N=C(\CC1OC(=O)c2ccccc21)c1ccco1` (stereo not drawn): > 100 µM.

For a further assay, the system named is HL-60(TB) leukemia. The experiment in a line: inhibition of tumour cell growth, NCI panel, 48 h.
Consider `NC1=C(NC(=O)Cc2ccc(F)cc2)C(=O)c2ccccc2C1=O`, for which the TGI was found to be 98.6 µM.
Still for that read-out and setting: the same measure for `COc1cc(/C=C2/C(=O)N(C(=O)OCC(C)C)C(Cc3cc(OC)c(OC)c(C)c3OC)C(=O)N2Cc2ccccc2)c(OC)c(C)c1OC` (stereo not drawn): > 100 µM; for `NC(=O)N/N=C(\CC1OC(=O)c2ccccc21)c1ccco1` (stereo not drawn): > 100 µM.
